Calls of active or inactive are those of the source.

One assay relates to H9c2. Nature of the assay: cells. In kind it is functional, cell-based. The following applies: Rattus norvegicus, H9c2, Myocardium.
Assay [1] is described as follows: fluconazole-exposed Candida albicans growth modulators – fluorescence, retest, confirmation (AID 2467). The format is functional, cell-based.
A short description of assay [2]: NIH-3T3 fibroblast cytotoxicity, dose response, cytotoxicity control, cell-based, fluorescence, Alamar Blue, secondary assay (AID 2327).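 Also: NIH-3T3 mouse fibroblasts cultured with fluconazole at 8 µg/mL.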 The format is functional. On the technique in general: Resazurin is reduced to fluorescent resorufin, in cell work by metabolically active cells.
Assay [3] has as its target T1, Calpain-2 catalytic subunit (Sus scrofa, UniProt P43367).
T1 sequence (P43367 whole entry): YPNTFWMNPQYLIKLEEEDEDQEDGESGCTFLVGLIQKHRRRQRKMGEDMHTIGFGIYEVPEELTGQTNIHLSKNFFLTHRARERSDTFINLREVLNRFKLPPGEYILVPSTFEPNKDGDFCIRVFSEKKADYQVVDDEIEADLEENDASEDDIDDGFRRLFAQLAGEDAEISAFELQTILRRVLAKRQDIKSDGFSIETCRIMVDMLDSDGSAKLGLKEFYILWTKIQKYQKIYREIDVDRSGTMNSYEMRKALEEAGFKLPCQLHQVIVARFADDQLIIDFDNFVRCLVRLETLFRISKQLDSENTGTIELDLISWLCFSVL
Description: m-calpain protease blockers, concentration series – biochemical, fluorogenic peptide substrate, dose response (AID 1420). The format is functional.

The next assay has as its target T2, Cytochrome P450 1A2 (Homo sapiens, UniProt P05177).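 Also: PubChem cytochrome P450 panel assay, CYP1A2 panel member.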
T2 sequence (P05177 whole entry): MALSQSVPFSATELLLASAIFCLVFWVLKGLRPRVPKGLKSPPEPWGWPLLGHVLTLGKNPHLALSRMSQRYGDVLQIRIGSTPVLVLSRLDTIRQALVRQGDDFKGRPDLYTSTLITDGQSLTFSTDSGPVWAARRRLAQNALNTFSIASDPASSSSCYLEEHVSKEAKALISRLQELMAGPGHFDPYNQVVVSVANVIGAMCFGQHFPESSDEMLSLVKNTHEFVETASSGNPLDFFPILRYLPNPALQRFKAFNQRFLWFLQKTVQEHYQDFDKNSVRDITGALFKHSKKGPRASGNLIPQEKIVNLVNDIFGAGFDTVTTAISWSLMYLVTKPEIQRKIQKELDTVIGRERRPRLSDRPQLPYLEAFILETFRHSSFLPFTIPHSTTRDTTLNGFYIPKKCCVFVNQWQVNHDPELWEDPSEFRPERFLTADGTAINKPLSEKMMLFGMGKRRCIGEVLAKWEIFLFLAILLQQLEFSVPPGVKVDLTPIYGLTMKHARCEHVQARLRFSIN

The next assay deals with Cytochrome P450 2C19 (Homo sapiens, UniProt P33261). Description: Cytochrome panel assay with activity outcomes. Panel member name: p450-cyp2c19 Compounds with AC50 equal or less than 10 uM are considered active. The format is functional. The following applies: read-out: AC50.
Sequence of Cytochrome P450 2C19 (P33261 whole entry): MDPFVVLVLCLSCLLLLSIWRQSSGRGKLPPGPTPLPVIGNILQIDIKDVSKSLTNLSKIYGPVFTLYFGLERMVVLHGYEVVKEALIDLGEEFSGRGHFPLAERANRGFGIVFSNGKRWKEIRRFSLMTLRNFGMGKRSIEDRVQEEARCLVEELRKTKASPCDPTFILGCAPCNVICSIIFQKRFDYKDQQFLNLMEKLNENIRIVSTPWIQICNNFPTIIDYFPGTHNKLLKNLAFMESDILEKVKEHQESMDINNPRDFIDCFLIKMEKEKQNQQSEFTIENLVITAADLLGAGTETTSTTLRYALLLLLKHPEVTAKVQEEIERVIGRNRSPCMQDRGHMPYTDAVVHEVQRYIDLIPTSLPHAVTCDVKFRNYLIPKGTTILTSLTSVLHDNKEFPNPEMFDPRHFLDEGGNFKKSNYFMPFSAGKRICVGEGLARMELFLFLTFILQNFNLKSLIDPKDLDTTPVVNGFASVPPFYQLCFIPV
In assay [4] the target is T3, Replicative DNA helicase DnaB (Mycobacterium tuberculosis, UniProt P9WMR3).
T3 sequence (P9WMR3 whole entry): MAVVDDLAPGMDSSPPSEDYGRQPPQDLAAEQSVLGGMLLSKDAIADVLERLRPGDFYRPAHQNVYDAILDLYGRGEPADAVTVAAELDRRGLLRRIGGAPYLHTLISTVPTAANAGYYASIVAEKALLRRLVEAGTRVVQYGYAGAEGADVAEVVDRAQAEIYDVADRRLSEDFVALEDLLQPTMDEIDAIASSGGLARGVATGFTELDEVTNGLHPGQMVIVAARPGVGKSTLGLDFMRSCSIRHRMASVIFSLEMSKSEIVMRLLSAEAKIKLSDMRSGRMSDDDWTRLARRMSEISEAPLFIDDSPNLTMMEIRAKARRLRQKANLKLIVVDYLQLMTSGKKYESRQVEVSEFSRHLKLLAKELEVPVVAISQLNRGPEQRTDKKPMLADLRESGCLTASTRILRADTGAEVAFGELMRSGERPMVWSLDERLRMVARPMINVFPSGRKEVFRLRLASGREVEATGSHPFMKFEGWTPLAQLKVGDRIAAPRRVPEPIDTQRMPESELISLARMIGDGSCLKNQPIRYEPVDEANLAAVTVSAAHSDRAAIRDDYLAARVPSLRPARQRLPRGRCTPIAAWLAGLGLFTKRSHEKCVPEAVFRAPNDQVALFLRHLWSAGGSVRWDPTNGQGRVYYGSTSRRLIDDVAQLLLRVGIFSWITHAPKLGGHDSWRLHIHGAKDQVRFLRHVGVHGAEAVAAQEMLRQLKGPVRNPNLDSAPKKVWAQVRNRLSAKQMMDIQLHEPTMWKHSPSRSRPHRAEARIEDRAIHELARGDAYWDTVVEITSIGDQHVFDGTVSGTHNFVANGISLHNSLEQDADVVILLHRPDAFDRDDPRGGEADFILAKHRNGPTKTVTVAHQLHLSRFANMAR
Description: DnaB intein splicing inhibitors, dose response, biochemical, cell-free fluorescence (AID 449749). In kind it is functional.

For a further assay, the target named is T4, Protein RecA (Mycobacterium tuberculosis, UniProt P9WHJ3).
T4 sequence (P9WHJ3 whole entry): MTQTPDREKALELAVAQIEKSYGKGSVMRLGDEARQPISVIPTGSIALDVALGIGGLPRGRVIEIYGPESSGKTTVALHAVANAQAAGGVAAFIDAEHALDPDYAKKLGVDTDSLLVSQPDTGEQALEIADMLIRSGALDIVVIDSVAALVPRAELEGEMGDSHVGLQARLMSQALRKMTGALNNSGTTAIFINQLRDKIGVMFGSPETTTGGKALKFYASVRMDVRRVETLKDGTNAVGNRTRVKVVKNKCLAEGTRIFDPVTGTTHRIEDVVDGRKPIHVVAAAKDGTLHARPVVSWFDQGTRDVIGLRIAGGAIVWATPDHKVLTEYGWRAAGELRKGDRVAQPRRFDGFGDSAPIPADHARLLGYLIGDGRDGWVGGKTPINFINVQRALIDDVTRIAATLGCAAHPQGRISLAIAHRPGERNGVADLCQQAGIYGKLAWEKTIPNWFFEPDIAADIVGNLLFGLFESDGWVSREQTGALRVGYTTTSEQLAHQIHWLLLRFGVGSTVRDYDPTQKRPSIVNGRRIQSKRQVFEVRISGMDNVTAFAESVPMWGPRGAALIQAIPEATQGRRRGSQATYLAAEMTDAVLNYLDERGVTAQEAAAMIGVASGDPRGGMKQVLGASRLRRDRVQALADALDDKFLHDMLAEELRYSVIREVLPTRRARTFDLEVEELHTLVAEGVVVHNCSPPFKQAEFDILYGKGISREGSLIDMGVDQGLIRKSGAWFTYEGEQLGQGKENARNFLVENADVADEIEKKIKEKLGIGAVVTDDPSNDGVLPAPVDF
Nature of the assay: Fluorescence Cell-Free Homogeneous Dose Retest to Identify Inhibitors of RecA-Intein Splicing Activity. [Related pubchem assays (depositor defined):AID2097, AID2223, AID489010, AID492950]. In kind it is functional.

Another assay concerns the target Paired box protein Pax-8 (Homo sapiens, UniProt Q06710). Description: PAX8 transcriptional activity inhibition in RMG-I – RMG-I cells, luciferase, cherry-pick, dose response (AID 687027).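 Also: luciferase reporter driven by Pax8 target thyroperoxidase promoter measured by SteadyGlo luminescence.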 In kind it is functional, cell-based.

Sequence of Paired box protein Pax-8 (Q06710 whole entry): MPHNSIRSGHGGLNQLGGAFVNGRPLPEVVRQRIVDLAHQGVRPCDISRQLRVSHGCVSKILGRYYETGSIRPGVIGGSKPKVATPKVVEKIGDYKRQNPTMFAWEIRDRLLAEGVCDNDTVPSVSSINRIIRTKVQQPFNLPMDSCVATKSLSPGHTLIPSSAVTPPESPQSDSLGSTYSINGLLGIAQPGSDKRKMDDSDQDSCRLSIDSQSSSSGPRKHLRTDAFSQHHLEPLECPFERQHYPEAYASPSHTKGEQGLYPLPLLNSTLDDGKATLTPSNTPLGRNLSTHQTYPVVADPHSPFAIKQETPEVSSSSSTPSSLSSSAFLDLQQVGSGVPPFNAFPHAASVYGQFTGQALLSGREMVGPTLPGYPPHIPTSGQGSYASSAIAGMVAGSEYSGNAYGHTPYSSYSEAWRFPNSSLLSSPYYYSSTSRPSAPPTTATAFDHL

As to `CN(C(=O)c1sc2nc(N3CCOCC3)c3c(c2c1N)CCCC3)c1ccccc1`, the IC50 in the assay with H9c2 was > 79 µM (inactive).
`O=C(Cn1cnc2c(nnn2Cc2ccc(F)cc2)c1=O)NC1CCCC1`: the values for the half-maximal effective concentration (EC50) in assay [1] and in assay [2] were > 38 µM (not active) and > 150 µM (inactive), respectively.
For the compound `COc1ccc(C2CCCCCN2C(=O)C2CCN(S(=O)(=O)c3cccc(C(C)=O)c3)CC2)cc1` (stereo not drawn), the IC50 with H9c2 was > 79 µM (inactive).
`O=C1c2ccccc2C(=O)N1CCCC(=O)N1CCCc2ccccc21`: the IC50 in assay [3] is > 50 µM (not active).
For the compound `O=C(NC1CCCCC1)C1c2ccccc2C(=O)N1Cc1ccc2c(c1)OCO2` (stereo not drawn), the IC50 in [3] was 20.2 µM (not active).
The same measure, in the same setting: the value for `CCCCSc1nnc(-c2ccccc2)c2ccccc12` was 9.31 µM (not active).
`COc1ccc(/C=N/NC(=O)c2sccc2OCc2ccc(F)cc2)cc1OC`: the concentration at half-maximal activity (AC50) on Cytochrome P450 1A2 is 14.1 µM (inconclusive); on Cytochrome P450 2C19, 17.8 µM (inconclusive). Further, the IC50 in the assay on H9c2 is > 79 µM (inactive).
For the compound `Cc1ccc(NC(=O)c2cc(=O)c3ccccc3o2)cc1S(=O)(=O)N1CCOCC1`, the IC50 in the assay with H9c2 was > 79 µM (inactive).
Same read-out and setting: the same measure for `COc1cc(CN2C[C@@H](CO)O[C@@H](n3cnc4c(Nc5ccccc5)ncnc43)C2)cc(OC)c1OC`: 9.14 µM (active); for `Cc1nn(-c2ccccc2)nc1C(=O)Nc1cccc(C(=O)NC2CC2)c1`: > 79 µM (inactive).
On to `Cc1cccc(Oc2cc(N)cc([N+](=O)[O-])c2)c1`, for which, in [3], the IC50 is reported as > 50 µM (not active).
Turning to `C=CCn1c(SCc2nc(O)c3ccccc3n2)nnc1-c1cc2cc(Cl)ccc2o1`, the values for the 50% effective concentration (EC50) in assay [1] and in assay [2] were 0.052 µM (active) and > 150 µM (inactive), respectively.
The matching figures for `CCCc1cc(O)nc(SCC(=O)Nc2ccc(Br)cc2Br)n1`: 1.38 µM (active) and 84.5 µM (active).
For `O=C(CCNC(=O)c1ccc(Br)cc1)Nc1nccs1` the same measures were > 38 µM (not active) and 23.9 µM (inconclusive).
On to `Cn1c2c(c(=O)n(C)c1=O)C(c1ccc(Br)cc1)Nc1ccccc1O2` (stereo not drawn), for which the IC50 in the assay on H9c2 is 25.7 µM (active).
Take `Nc1cc(Oc2cccnc2)cc([N+](=O)[O-])c1`: the half-maximal inhibitory concentration (IC50) in assay [3] is reported as > 50 µM (not active).
As for `Cc1ccc(S(=O)(=O)/N=C(/c2ccccc2)N2CCOCC2)c(C)c1`, the values for the half-maximal effective concentration (EC50) in assay [1] and in assay [2] were > 38 µM (not active) and > 160 µM (inconclusive), respectively.
Regarding `Cc1nn(-c2cccc(Cl)c2)c2c1C(c1cccnc1)C(C#N)=C(N)O2` (stereo not drawn), in [4], the AC50 was 16.7 µM (active). Further, the concentration for a half-maximal effect (EC50) on Protein RecA was 5.05 µM (active).
Take `CO[C@H]1CN(C)C(=O)c2cc(NC(=O)c3nc4ccccc4s3)ccc2OC[C@H](C)N(Cc2cccnc2)C[C@H]1C`: the half-maximal activity concentration (AC50) at Paired box protein Pax-8 is 18.8 µM (active).
With `CCCCCCCCNC(=O)c1ccc(C)cc1`, the IC50 in assay [3] is listed as 10.1 µM (not active).
Same read-out and setting: the same measure for `O=C(Cc1cn(Cc2cccc(Cl)c2)c2ccccc12)N1CCCC1`: 17.1 µM (not active).
On to `CCCn1c(=O)c2[nH]c(-c3ccc(OCC(=O)Nc4ccc(C#N)cc4)cc3)nc2n(CCC)c1=O`, for which, at Cytochrome P450 1A2, the half-maximal activity concentration (AC50) was 31.6 µM (inconclusive). Further, in the assay with H9c2, the IC50 was > 79 µM (inactive).
Take `Cc1ccc(-n2c(S)nnc2Cc2ccccc2)c(C)c1`: the EC50 in assay [1] was 2.71 µM (active); in assay [2] it was > 150 µM (inactive).
As for `O=C(Nc1ncc([N+](=O)[O-])s1)c1ccco1`, in assay [4], the concentration at half-maximal activity (AC50) is 24.2 µM (active). In addition, the half-maximal effective concentration (EC50) at Protein RecA was 17.4 µM (active).
`CC(C)(C)c1ccc(CNc2ccc([N+](=O)[O-])cn2)cc1`: in assay [3], the IC50 is 5.15 µM (active).
`O=C(CCCN1C(=O)/C(=C/c2cccc(Br)c2)SC1=S)Nc1ccccn1`: the concentration at half-maximal activity (AC50) on Paired box protein Pax-8 is 5.71 µM (active).
Take `Cc1cc(NC(=O)CCN2C(=O)/C(=C/c3ccccc3Cl)SC2=S)no1`: the 50% inhibitory concentration (IC50) in [3] is > 50 µM (not active).

Usually IC50 stands for the concentration needed to halve the response being measured. Broadly, the EC50 is the concentration at which the effect is half-maximal. Usually AC50 stands for the concentration at which the activity in the assay is half-maximal.
